Measured values taken from ChEMBL document CHEMBL1201862, “PubChem BioAssay data set” (2004).
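Each compound was tested at five concentrations against cells in 96-well plates for 48 hours. At the GI50, growth is halved.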 Calls of active or inactive are those of the source. No stated cut-off is given here; in the data, active = GI50 up to about 1.1 µM and inactive = higher.

Experiments:
Assay in all cases: inhibition of tumour cell growth, NCI panel, 48 h
COLO 205 = tested on: COLO 205
LOX IMVI = tested on: LOX IMVI
SN12C = tested on: SN12C
SK-MEL-28 = tested on: SK-MEL-28
NCI-H226 = tested on: NCI-H226
IGROV-1 = tested on: IGROV-1
SNB-19 = tested on: SNB-19
MDA-N = tested on: MDA-N
UACC-62 = tested on: UACC-62
SF-268 = tested on: SF-268
NCI-H23 = tested on: NCI-H23
786-0 = tested on: 786-0
UACC-257 = tested on: UACC-257
SR = tested on: SR
DU-145 = tested on: DU-145
A498 = tested on: A498
HL-60 = tested on: HL-60
T47D = tested on: T47D
NCI-H522 = tested on: NCI-H522

Measured: GI50

CC(C)CCCC(C)[C@H]1CC[C@H]2N/C(=N/Cc3ccccc3)CCC[C@]12C (some centres undefined)
inactive: COLO 205 1.42 µM | LOX IMVI 1.92 µM | SN12C 1.84 µM | SK-MEL-28 1.47 µM | NCI-H226 2.07 µM | IGROV-1 1.74 µM | SNB-19 2.94 µM | MDA-N 1.71 µM | UACC-62 1.83 µM | SF-268 2.2 µM | NCI-H23 2.23 µM | 786-0 2 µM | UACC-257 2.42 µM | SR 2.72 µM | DU-145 2.52 µM | A498 1.95 µM | HL-60 2.11 µM | T47D 2.83 µM

COc1cc2c(cc1OC)C1CN3C(=O)CCC3C(O)C1c1cc(OC)c(OC)cc1-2 (centres undefined)
inactive: COLO 205 > 100 µM | LOX IMVI > 100 µM | SN12C > 100 µM | SK-MEL-28 > 100 µM | IGROV-1 > 100 µM | SNB-19 > 100 µM | MDA-N > 100 µM | UACC-62 > 100 µM | NCI-H522 > 100 µM | SF-268 > 100 µM | NCI-H23 > 100 µM | 786-0 > 100 µM | UACC-257 > 100 µM | SR > 100 µM | DU-145 > 100 µM | A498 > 100 µM | HL-60 > 100 µM | T47D > 100 µM

COc1ccc(C(Nc2ccccn2)c2cc(C(C)(C)C)cc(C(C)(C)C)c2O)cc1 (centres undefined)
inactive: COLO 205 19 µM | LOX IMVI 13.9 µM | SN12C 18.1 µM | SK-MEL-28 50.4 µM | NCI-H226 21.3 µM | IGROV-1 24 µM | SNB-19 61 µM | MDA-N 20.7 µM | UACC-62 17 µM | NCI-H522 4.05 µM | SF-268 5.65 µM | NCI-H23 17.1 µM | 786-0 21.4 µM | UACC-257 26.2 µM | SR 10.1 µM | DU-145 7.76 µM | A498 54.8 µM | T47D 6.67 µM

COc1ccc(OC)c(C2CCc3cnc4nc(N)nc(N)c4c3C2)c1 (centres undefined)
inactive: COLO 205 > 100 µM | LOX IMVI 62.1 µM | SN12C > 100 µM | SK-MEL-28 > 100 µM | IGROV-1 56 µM | SNB-19 > 100 µM | MDA-N 55.5 µM | UACC-62 74 µM | NCI-H522 > 100 µM | SF-268 > 100 µM | NCI-H23 64.6 µM | 786-0 66.7 µM | UACC-257 61.9 µM | SR 56.9 µM | DU-145 > 100 µM | A498 > 100 µM | HL-60 > 100 µM | T47D > 100 µM

CC(=O)N(O)c1ccc(-c2nc3ccccc3s2)cc1
inactive: COLO 205 > 100 µM | LOX IMVI 63.4 µM | SN12C > 100 µM | SK-MEL-28 80.7 µM | NCI-H226 24.2 µM | IGROV-1 32.9 µM | SNB-19 60 µM | MDA-N 77.6 µM | UACC-62 > 100 µM | NCI-H522 24.5 µM | SF-268 74.6 µM | NCI-H23 > 100 µM | 786-0 55.1 µM | UACC-257 > 100 µM | SR > 100 µM | DU-145 > 100 µM | A498 35.6 µM | T47D 32.9 µM

NC1=NCC(CN2CCCC2)O1 (centres undefined)
inactive: COLO 205 > 100 µM | LOX IMVI > 100 µM | SN12C > 100 µM | SK-MEL-28 > 100 µM | IGROV-1 > 100 µM | SNB-19 > 100 µM | MDA-N > 100 µM | UACC-62 > 100 µM | NCI-H522 > 100 µM | SF-268 > 100 µM | NCI-H23 > 100 µM | 786-0 > 100 µM | UACC-257 > 100 µM | SR > 100 µM | DU-145 > 100 µM | A498 > 100 µM | HL-60 > 100 µM | T47D > 100 µM

CC(C)(C)OC(=O)N(O)[C@@H]1CC[C@H](n2cnc3c(N)ncnc32)C1
inactive: COLO 205 > 100 µM | LOX IMVI > 100 µM | SN12C > 100 µM | SK-MEL-28 > 100 µM | NCI-H226 > 100 µM | IGROV-1 54.5 µM | SNB-19 > 100 µM | MDA-N > 100 µM | UACC-62 > 100 µM | NCI-H522 > 100 µM | SF-268 > 100 µM | NCI-H23 > 100 µM | 786-0 > 100 µM | UACC-257 > 100 µM | SR > 100 µM | DU-145 > 100 µM | A498 > 100 µM | T47D > 100 µM

Cn1c(=O)c2sc3c4sc5c(=O)n(C)c6ccccc6c5c4sc3c2c2ccccc21
inactive: COLO 205 > 100 µM | SN12C > 100 µM | SK-MEL-28 > 100 µM | NCI-H226 > 100 µM | IGROV-1 > 100 µM | SNB-19 22.4 µM | MDA-N > 100 µM | UACC-62 > 100 µM | NCI-H522 > 100 µM | SF-268 > 100 µM | NCI-H23 > 100 µM | 786-0 38.1 µM | UACC-257 > 100 µM | SR 66.4 µM | DU-145 > 100 µM | A498 > 100 µM | HL-60 > 100 µM | T47D > 100 µM
